One block for each compound: values may come before it.
Tests used:
Assay type in all cases: physicochemical
Details in all cases: hEPO mRNA
[1] = LNP size and polydispersity index (PDI) by dynamic light scattering (DLS)
[2] = Encapsulation efficiency (EE %) by fluorescence based Ribogreen assay
[3] = LNP Zeta potential measured using a Zetasizer (Malvern)
[4] = Table 1, LNP lipid:DSPC:Cholesterol:DMG-PEG2k 50:10:38.5:1.5 mol %, N:P 6
[5] = Table 3, LNP 50:10:38.5:1.5 mol %, N:P 6
[6] = Table 3, LNP lipid:DSPC:Cholesterol:DMG-PEG2k 50:10:38.5:1.5 mol %, N:P 6
[7] = Table 4, LNP 40:10:48.5:1.5 mol %, N:P 6
[8] = Table 4, LNP 40:10:48.5:1.5 mol %, N:P 9
[9] = Table 4, LNP 40:10:48.5:1.5 mol %, N:P 12
[10] = Table 4, LNP 50:10:38.5:1.5 mol %, N:P 6
[11] = Table 4, LNP 50:10:38.5:1.5 mol %, N:P 9
[12] = Table 4, LNP 50:10:38.5:1.5 mol %, N:P 12
[13] = Table 4, LNP 60:0:38.5:1.5 mol %, N:P 6
[14] = Table 4, LNP 60:0:38.5:1.5 mol %, N:P 9
[15] = Table 4, LNP 60:0:38.5:1.5 mol %, N:P 12
[16] = Table 5, LNP 50:10:38.5:1.5 mol %, N:P 6
[17] = Table 5, LNP 60:0:38.5:1.5 mol %, N:P 6
[18] = Table 5, LNP Lipid:DSPC:Cholesterol:DMG-PEG2k 50:10:38.5:1.5 mol %, N:P 6

PDI [1, 4]: 0.07
Size [1, 4]: 61.6 nm
PDI [1, 5]: 0.071
Size [1, 6]: 70.6 nm
PDI [1, 7]: 0.204
Size [1, 7]: 56.4 nm
PDI [1, 8]: 0.354
Size [1, 8]: 67.8 nm
PDI [1, 9]: 0.119
Size [1, 9]: 75.7 nm
PDI [1, 10]: 0.134
PDI [1, 11]: 0.365
Size [1, 11]: 65.3 nm
PDI [1, 12]: 0.515
Size [1, 12]: 67.8 nm
PDI [1, 13]: 0.089
Size [1, 13]: 125 nm
PDI [1, 14]: 0.018
Size [1, 14]: 123 nm
PDI [1, 15]: 0.263
Size [1, 15]: 55 nm
Size ([1]; Table 4, LNP Lipid:DSPC:Cholesterol:DMG-PEG2k 50:10:38.5:1.5 mol %, N:P 6): 62.2 nm
Encapsulation Efficiency % [2, 4]: 96.7%
Encapsulation Efficiency % [2, 5]: 95.1%
Encapsulation Efficiency % [2, 7]: 87.7%
Encapsulation Efficiency % [2, 8]: 98%
Encapsulation Efficiency % [2, 9]: 98.3%
Encapsulation Efficiency % [2, 10]: 96.3%
Encapsulation Efficiency % [2, 11]: 98.6%
Encapsulation Efficiency % [2, 12]: 98.2%
Encapsulation Efficiency % [2, 13]: 90.2%
Encapsulation Efficiency % [2, 14]: 92.3%
Encapsulation Efficiency % [2, 15]: 94.8%
Zeta potential [3, 4]: −5.265 mV
Zeta potential [3, 7]: −0.6716 mV
Zeta potential [3, 8]: −1.95 mV
Zeta potential [3, 9]: −3.302 mV
Zeta potential [3, 10]: −4.369 mV
Zeta potential [3, 11]: −2.051 mV
Zeta potential [3, 12]: −4.408 mV
Zeta potential [3, 13]: −5.393 mV
Zeta potential [3, 14]: −5.043 mV
Zeta potential [3, 15]: −5.125 mV
Structure (SMILES): CCCCCCCCC(CCCCCC)C(=O)OCCN(CCOC(=O)C(CCCCCC)CCCCCCCC)C(=O)C(N)Cc1ccccc1 (stereo not drawn) [Compound 117]

Size [1, 4]: 105.4 nm
Encapsulation Efficiency % [2, 4]: 93.1%
Zeta potential [3, 4]: 8.346 mV
Structure (SMILES): CCCCCCCCCCCC(=O)OCCN(CCOC(=O)CCCCCCCCCCC)C(=O)C(N)CCCCN (stereo not drawn) [Compound 121]

PDI [1, 4]: 0.259
Size [1, 4]: 71.8 nm
Encapsulation Efficiency % [2, 4]: 94.2%
Zeta potential [3, 4]: 6.541 mV
Structure (SMILES): CCCCCCCCCC(=O)OCCN(CCOC(=O)CCCCCCCCC)C(=O)C(N)CCCCN (stereo not drawn) [Compound 122]

PDI [1, 4]: 0.338
Size [1, 4]: 83.3 nm
Encapsulation Efficiency % [2, 4]: 97%
Zeta potential [3, 4]: −3.45 mV
Structure (SMILES): CCCCCCCCC(CCCCCC)C(=O)OCCN(CCOC(=O)C(CCCCCC)CCCCCCCC)C(=O)C(N)CCCCN (stereo not drawn) [Compound 123]

PDI [1, 4]: 0.387
Size [1, 4]: 85.9 nm
Encapsulation Efficiency % [2, 4]: 89.5%
Zeta potential [3, 4]: 6.011 mV
Structure (SMILES): CCCCCCCCCCCC(=O)OCCN(CCOC(=O)CCCCCCCCCCC)C(=O)C(N)Cc1c[nH]cn1 (stereo not drawn) [Compound 127]

PDI [1, 4]: 0.058
Size [1, 4]: 77.8 nm
Encapsulation Efficiency % [2, 4]: 95.2%
Zeta potential [3, 4]: 6.43 mV
Structure (SMILES): CCCCCCCCCC(=O)OCCN(CCOC(=O)CCCCCCCCC)C(=O)C(N)Cc1c[nH]cn1 (stereo not drawn) [Compound 128]

PDI [1, 4]: 0.146
Size [1, 4]: 74.2 nm
Encapsulation Efficiency % [2, 4]: 95.1%
Zeta potential [3, 4]: −5.059 mV
Structure (SMILES): CCCCCCCCC(CCCCCC)C(=O)OCCN(CCOC(=O)C(CCCCCC)CCCCCCCC)C(=O)C(N)CO (stereo not drawn) [Compound 130]

PDI [1, 4]: 0.15
Size [1, 4]: 75.4 nm
Encapsulation Efficiency % [2, 4]: 92.9%
Zeta potential [3, 4]: −4.36 mV
Structure (SMILES): CCCCCCCC/C=C\CCCCCCCC(=O)OCCN(CCOC(=O)CCCCCCC/C=C\CCCCCCCC)C(=O)C(N)CO (stereo not drawn) [Compound 132]

PDI [1, 4]: 0.321
Size [1, 4]: 87.1 nm
Encapsulation Efficiency % [2, 4]: 90.5%
Zeta potential [3, 4]: 6.281 mV
Structure (SMILES): CCCCCCCCCCCC(=O)OCCN(CCOC(=O)CCCCCCCCCCC)C(=O)C(N)CO (stereo not drawn) [Compound 134]

PDI [1, 4]: 0.228
Size [1, 4]: 111.3 nm
Encapsulation Efficiency % [2, 4]: 89.8%
Zeta potential [3, 4]: 2.909 mV
Structure (SMILES): CCCCCCCCCC(=O)OCCN(CCOC(=O)CCCCCCCCC)C(=O)C(N)CO (stereo not drawn) [Compound 135]

PDI [1, 5]: 0.051
Size [1, 6]: 53.3 nm
PDI [1, 16]: 0.05
PDI [1, 17]: 0.098
Size [1, 17]: 52.7 nm
Size [1, 18]: 59.3 nm
Encapsulation Efficiency % [2, 5]: 99.3%
Encapsulation Efficiency % [2, 16]: 99.5%
Encapsulation Efficiency % [2, 17]: 99.5%
Zeta potential [3, 16]: −0.5189 mV
Zeta potential [3, 17]: −2.027 mV
Structure (SMILES): CCCCCCCCC(CCCCCC)C(=O)OCCN(CCOC(=O)C(CCCCCC)CCCCCCCC)C(=O)CNCCO (stereo not drawn) [Compound 305]

PDI [1, 16]: 0.185
Size [1, 18]: 83.8 nm
Encapsulation Efficiency % [2, 16]: 99.8%
Zeta potential [3, 16]: −4.878 mV
Structure (SMILES): CCCCCC(CCCCC)C(=O)OCCN(CCOC(=O)C(CCCCC)CCCCC)C(=O)CN [Compound 601]

PDI [1, 16]: 0.337
Size [1, 18]: 84.8 nm
Encapsulation Efficiency % [2, 16]: 99.1%
Zeta potential [3, 16]: −5.94 mV
Structure (SMILES): CCCCCCC(CCCC)C(=O)OCCN(CCOC(=O)C(CCCC)CCCCCC)C(=O)CN (stereo not drawn) [Compound 602]

PDI [1, 16]: 0.213
Size [1, 18]: 71.7 nm
Encapsulation Efficiency % [2, 16]: 98.4%
Zeta potential [3, 16]: −3.116 mV
Structure (SMILES): CCCCCCCCC(CC)C(=O)OCCN(CCOC(=O)C(CC)CCCCCCCC)C(=O)CN (stereo not drawn) [Compound 603]

PDI [1, 16]: 0.102
PDI [1, 17]: 0.15
Size [1, 17]: 236.6 nm
Size [1, 18]: 208.5 nm
Encapsulation Efficiency % [2, 16]: 99.3%
Encapsulation Efficiency % [2, 17]: 98%
Zeta potential [3, 16]: −7.347 mV
Zeta potential [3, 17]: −3.753 mV
Structure (SMILES): CCCCCCCC(CCCCCCC)C(=O)OCCN(CCOC(=O)C(CCCCCCC)CCCCCCC)C(=O)CN [Compound 604]

PDI [1, 16]: 0.457
Size [1, 18]: 57.2 nm
Encapsulation Efficiency % [2, 16]: 99.9%
Zeta potential [3, 16]: −2.662 mV
Structure (SMILES): CCCCCCCCCCCCC(CC)C(=O)OCCN(CCOC(=O)C(CC)CCCCCCCCCCCC)C(=O)CN (stereo not drawn) [Compound 606]

Size [1, 18]: 68.9 nm
Encapsulation Efficiency % [2, 16]: 99.7%
Zeta potential [3, 16]: −12.44 mV
Structure (SMILES): CCCCCCCCCC(CCCCCCCCC)C(=O)OCCN(CCOC(=O)C(CCCCCCCCC)CCCCCCCCC)C(=O)CN [Compound 607]

PDI [1, 16]: 0.13
Size [1, 18]: 77.1 nm
Encapsulation Efficiency % [2, 16]: 97.7%
Zeta potential [3, 16]: −4.462 mV
Structure (SMILES): CCCCCC(CCCCC)C(=O)OCCN(CCOC(=O)C(CCCCC)CCCCC)C(=O)C(C)N (stereo not drawn) [Compound 608]

Size [1, 18]: 98 nm
Encapsulation Efficiency % [2, 16]: 99.8%
Zeta potential [3, 16]: −4.452 mV
Structure (SMILES): CCCCCCC(CCCC)C(=O)OCCN(CCOC(=O)C(CCCC)CCCCCC)C(=O)C(C)N (stereo not drawn) [Compound 609]

PDI [1, 16]: 0.202
Size [1, 18]: 77.3 nm
Encapsulation Efficiency % [2, 16]: 99.7%
Zeta potential [3, 16]: −1.535 mV
Structure (SMILES): CCCCCCCCC(CC)C(=O)OCCN(CCOC(=O)C(CC)CCCCCCCC)C(=O)C(C)N (stereo not drawn) [Compound 610]

PDI [1, 16]: 0.24
PDI [1, 17]: 0.244
Size [1, 17]: 55.6 nm
Size [1, 18]: 155.4 nm
Encapsulation Efficiency % [2, 16]: 99.3%
Encapsulation Efficiency % [2, 17]: 98.4%
Zeta potential [3, 16]: −5.841 mV
Zeta potential [3, 17]: −5.555 mV
Structure (SMILES): CCCCCCCC(CCCCCCC)C(=O)OCCN(CCOC(=O)C(CCCCCCC)CCCCCCC)C(=O)C(C)N (stereo not drawn) [Compound 611]

PDI [1, 16]: 0.403
Size [1, 18]: 69.9 nm
Encapsulation Efficiency % [2, 16]: 99.8%
Zeta potential [3, 16]: −3.371 mV
Structure (SMILES): CCCCCCCCCCC(CCCC)C(=O)OCCN(CCOC(=O)C(CCCC)CCCCCCCCCC)C(=O)C(C)N (stereo not drawn) [Compound 612]

PDI [1, 16]: 0.236
Size [1, 18]: 53.7 nm
Encapsulation Efficiency % [2, 16]: 99.8%
Zeta potential [3, 16]: −6.511 mV
Structure (SMILES): CCCCCCCCCCCCC(CC)C(=O)OCCN(CCOC(=O)C(CC)CCCCCCCCCCCC)C(=O)C(C)N (stereo not drawn) [Compound 613]

PDI [1, 16]: 0.443
Size [1, 18]: 79.1 nm
Encapsulation Efficiency % [2, 16]: 99.7%
Zeta potential [3, 16]: −8.485 mV
Structure (SMILES): CCCCCCCCCC(CCCCCCCCC)C(=O)OCCN(CCOC(=O)C(CCCCCCCCC)CCCCCCCCC)C(=O)C(C)N (stereo not drawn) [Compound 614]

PDI [1, 16]: 0.408
Size [1, 18]: 104.2 nm
Encapsulation Efficiency % [2, 16]: 98.7%
Zeta potential [3, 16]: −11.83 mV
Structure (SMILES): CCCCCC(CCCCC)C(=O)OCCN(CCOC(=O)C(CCCCC)CCCCC)C(=O)C(N)Cc1ccccc1 (stereo not drawn) [Compound 615]

PDI [1, 16]: 0.32
Size [1, 18]: 63.7 nm
Encapsulation Efficiency % [2, 16]: 99.1%
Zeta potential [3, 16]: −5.824 mV
Structure (SMILES): CCCCCCCCC(CC)C(=O)OCCN(CCOC(=O)C(CC)CCCCCCCC)C(=O)C(N)Cc1ccccc1 (stereo not drawn) [Compound 617]

PDI [1, 16]: 0.304
PDI [1, 17]: 0.116
Size [1, 17]: 211.9 nm
Size [1, 18]: 53.9 nm
Encapsulation Efficiency % [2, 16]: 97.9%
Encapsulation Efficiency % [2, 17]: 92.8%
Zeta potential [3, 16]: −13.69 mV
Zeta potential [3, 17]: −17.91 mV
Structure (SMILES): CCCCCCCC(CCCCCCC)C(=O)OCCN(CCOC(=O)C(CCCCCCC)CCCCCCC)C(=O)C(N)Cc1ccccc1 (stereo not drawn) [Compound 618]

PDI [1, 16]: 0.183
Size [1, 18]: 60.7 nm
Encapsulation Efficiency % [2, 16]: 98.1%
Zeta potential [3, 16]: −11.63 mV
Structure (SMILES): CCCCCCCCCCC(CCCC)C(=O)OCCN(CCOC(=O)C(CCCC)CCCCCCCCCC)C(=O)C(N)Cc1ccccc1 (stereo not drawn) [Compound 619]

PDI [1, 16]: 0.23
Size [1, 18]: 56.7 nm
Encapsulation Efficiency % [2, 16]: 99%
Zeta potential [3, 16]: −5.044 mV
Structure (SMILES): CCCCCCCCCCCCC(CC)C(=O)OCCN(CCOC(=O)C(CC)CCCCCCCCCCCC)C(=O)C(N)Cc1ccccc1 (stereo not drawn) [Compound 620]

Reference: patent publication US20250268826A1, “IONIZABLE LIPIDOID COMPOSITIONS AND THERAPEUTIC USES THEREOF” (Flagship Pioneering Innovations VII, LLC, priority 2023, published 2025)
